No end group written: not given here.
What was measured:
[1] = system: engineered form of the protein streptavidin; test: Detection of acetic acid contamination of the arginine synthesis reagent: streptavidin signal output on control peptide features; type: binding
Procedure: In another example according to the present disclosure, a control peptide sequence was used to identify the presence of a contaminant in the arginine synthesis reagent. Preliminarily, it was determined using the methods described herein that the control peptide sequence [N]-GYERPGWKLAG-[C] (SEQ ID NO:19) can be used to detect the presence (or absence) of acetic acid in one or more of the synthesis reagents used to synthesize a population of peptides including the control peptide sequence GYERPGWKLAG (SEQ ID NO:19). In the present example, peptide sequences were synthesized from the C-terminus to the N-terminus. Using this synthesis scheme, it was determined that the amino acid Pro in the 5th position from the N-terminus of SEQ ID NO:19 is susceptible to acetylation in the presence of acetic acid. Without being limited by theory, it is hypothesized that as the direction of synthesis is from the C-terminus to the N-terminus, instead of addition of the amino acid Arg in the 4th position from the N-terminus following addition of the amino acid Pro in the 5th position, acetic acid was able to form an amino acid bond with the terminal proline.
Moreover, the concentration of acetic acid in a synthesis reagent can be correlated with the signal output characteristic of the interaction of the streptavidin receptor with the control peptide feature (SEQ ID NO:19) or the truncated version thereof (SEQ ID NO:20). […] However, the amino acids at the N-terminus should be selected such that there is a detectable difference in the interaction of streptavidin with the alternative control peptide.
To illustrate the detection of varying concentrations of acetic acid in a peptide synthesis reagent, four different NPPOC-protected arginine reagent solutions were prepared with differing concentrations (volume %) of acetic acid. A first arginine solution included no detectable amount of acetic acid (i.e., about 0.00%), a second arginine solution included 0.03% acetic acid, a third arginine solution included a 0.18% acetic acid, and a fourth arginine solution included 0.38% acetic acid. Four different synthetic peptide populations were synthesized using one of the four arginine solutions, and the signal output characteristic of the interaction of the streptavidin receptor with each of the control peptide features (SEQ ID NO:19) or the truncated versions thereof (SEQ ID NO:20) was determined (FIG. 24). […] In the present example, the raw signal output associated with the arginine reagent solution including 0.03% acetic acid was 1000 units, whereas the signal output associated with the arginine reagent solutions including 0.38% acetic acid was about 30,000 units. […]

[2] = molecular target: streptavidin (Streptomyces avidinii, UniProt P22629); test: Streptavidin receptor interaction with control peptide features on a peptide array, fluorescence signal (substitution/deletion profiles); type: binding; details: raw fluorescence signal of streptavidin interaction with control peptide; variants at 6th position from N-terminus (FIG. 8A)
Source text: A number of receptor molecules 616 are shown as interacting with the peptide feature 606. Interaction of the receptor molecules 616 with the peptide feature 606 can include binding, catalysis of (or participation in) a reaction including peptides within the peptide feature 606, digestion of the peptides within the feature 606, the like, and combinations thereof. In the present example shown in FIGS. 6A-6C, the receptor 616 was used in the identification of the peptide binder sequence represented by the peptides in the feature 606 (i.e., [N]-Gly-Phe-Glu-Asp-Tyr-Leu-Gly-Glu-Tyr-His-Gly-[C] (SEQ ID NO:1)). […] In one aspect, the interaction of the receptor molecules 616 with the population of peptide features 602 on the peptide array 600 can be detected, for example, by labelling the receptor molecules 616 with a detectable tag 618 (FIG. 6C). […]
In a next step 660 of the method 650, the synthetic peptide population is interrogated in the presence of a receptor having an affinity for the peptide binder sequences encoded by the control peptides. […] Thereafter, in a step 662 of the method 650, an output of the peptide-receptor interaction is detected. […] Accordingly, based on the output detected in the step 662, a step 664 of the method 650 can include assessing the fidelity of amino acid incorporation. […]

Chain of streptavidin (P22629 25-183, species assumed): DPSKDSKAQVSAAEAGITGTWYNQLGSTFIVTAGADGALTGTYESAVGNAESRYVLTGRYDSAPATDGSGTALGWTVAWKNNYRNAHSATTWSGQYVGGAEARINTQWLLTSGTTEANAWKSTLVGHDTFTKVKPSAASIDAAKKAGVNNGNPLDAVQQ

## *PGWKLAG (Ac-PGWKLAG) [*PGWKLAG (SEQ ID NO:20), *P is acetylated N-terminal Pro]
[1]; acetylated truncated peptide on array (FIG. 24)
  affinity towards an engineered form of the protein streptavidin: exhibit intrinsic affinity

## GYERPGWKLAG [GYERPGWKLAG (SEQ ID NO:19), control peptide to detect acetic acid contamination in synthesis reagents]
[1]; acetic acid in arginine reagent raised from 0.03% to 0.38%
  increase in raw signal: 30 fold
[1]; control peptide features (SEQ ID NO:19 or truncated SEQ ID NO:20) synthesized with arginine reagent solution including 0.03% acetic acid (FIG. 24)
  raw signal output: 1000 units
[1]; control peptide features (SEQ ID NO:19 or truncated SEQ ID NO:20) synthesized with arginine reagent solution including 0.38% acetic acid (FIG. 24)
  signal output: about 30,000 units

## GWTHPMFEQKG [GWTHPMFEQKG (SEQ ID NO:2)]
[2]
  average raw signal: 18,000 units
